Laboratory results published in patent US5288723A, “A composition and a method of using veratridine and epinephrine as a local anesthetic” (priority 1991, dated 1994).
“Also recorded” adds a separate entry of the source.

Legend:
[1] = tested on: C-fibers of rabbit vagus nerve; experiment: Sucrose-gap recording in the veratrinized region, C-fibers; parameters: species or system New Zealand white rabbit
Method: Adult male New Zealand white rabbits (3±0.5 kg) were pretreated intramuscularly with a mixture of ketamine (200 mg), xylazine (20 mg) and atropine (0.4 mg) for sedation. Ten minutes after this treatment, the animals were anesthetized with diethyl ether. After cessation of respiration, a longitudinal skin incision was made, and the cervical portion of both vagus nerves was dissected. The vagus nerves were temporarily stored at room temperature (22° C.) in a beaker containing modified HEPES Liley (HL) solution stirred constantly by aeration with a mixture of 95% oxygen and 5% carbon dioxide.
The modified HL solution used for bathing the nerve and subsequent drug perfusion consisted of (in mM): NaCl, 118.0; KCl, 5.0; CaCl2 2H2 0, 2.0; MgCl2 6H2 0, 1.0; α-D(+)-glucose, 11.0; NaHC03, 25.0; and N-2-hydroxy-ethylpiperazine-N-2-ethanesulfonic acid (HEPES) buffer, 5.0 mM. The pH was adjusted to 7.4±0.05 by addition of 1 N NaOH. The perfusion solution was bubbled with a gas mixture of 95% oxygen and 5% carbon dioxide at a vigorous rate just before flowing onto the nerve. The pH was stabilized by the HEPES buffer and maintained at 7.4.
VTD free base (no. V-5754, lot 58F-7828, Sigma, St. Louis, Mo.) was stored in a desiccator below 0° C. and was used to prepare a 2 mM stock solution in dimethyl sulfoxide [DMSO], Fisher Scientific, lot 861316), which also was stored at below 0° C. VTD, a steroidal alkaloid (FIG. 2A) that is produced by certain lilies, has a solubility limited to approximately 10^-3 M in aqueous slat solutions [Kupchan and By, "The Veratrum Group," in Alkaloids, Vol. 10, Manske, R.H.F. (ed.), New York, Academic Press (1968), pp. 193-285]. The stock VTD solution was diluted to final concentrations of 0.2-10 μM by the addition of HL. The maximum equivalent content of DMSO is 0.5%, and in three control experiments we detected no change in electrophysiologic behavior with 1% DMSO.
Nerves were desheathed and mounted in an acrylic sucrose-gap chamber (FIG. 2C). We used a method after that described by Stampfli [Stampfli, R., Experientia 10:508-509 (1954); see also Rando et al., Mol. Pharmacol. 29:467-477 (1986)]. […] In contrast to the extracellular chamber described above, which measured APc in a drug-free segment after they had propagated through a VTD solution, the sucrose gap measured the behavior of the nerve membrane directly exposed to drug, the "veratrinized" nerve.
APc and the CRP were recorded with the same amplifier used for extracellular recording (see above), but passed both to the DC-coupled input of the storage oscilloscope (for APc) and to a strip-chart recorder (for CRP) (model 8376-20, Cole-Palmer). […]

rat sciatic nerve = experiment: Motor block of rat sciatic nerve in vivo (toe curling and/or foot dragging); parameters: species or system Male Sprague-Dawley rats; details: for duration, MOTOR / onset, MOTOR: mean ± SEM
Method: Male Sprague-Dawley rats (200-250 g) were divided into 4 groups of 10 each. 0.1 ml of VTD alone at 0.2, 0.5 or 0.7 mM or vehicle (saline) was injected at the depression between the femoral head and the hip. The same animals were injected with VTD with epinephrine (EPI, 1:200,000) one week later, using the previously uninjected leg. Motor and sensory functions were rated by the respective monitoring of toe curling and/or foot dragging, and by testing the nocifensive withdrawal reflex to pinch of the foot pad of the injected hindlimb. Saline alone affected neither function.

With `COc1ccc(C(=O)OC2CCC3(C)C4CCC5C6(O)CC(O)C7(O)C(CN8CC(C)CCC8C7(C)O)C6(O)CC53OC24O)cc1OC` (stereo not drawn) [VTD, veratridine] the “C-fiber elevation after addition of VTD” value ([1]; 0.5 μm VTD, single stimulus) was “unaffected”, the “Time for development of VTD-induced depolarization (VID) after stimulation” value ([1]; 0.5 μm VTD, within about 100 ms) was ≤ 100 ms and the “Decay halftime of VTD-induced depolarization (VID)” value ([1]; after 1 hr in 2.0 μm VTD) was 3 to 4 s. The “Primary C-fiber elevations during cumulative VID” value ([1]; repetitive stimulation) was “much smaller than were the elevations induced by single stimuli; also recorded: selectively reduced”, the “Onset of motor block (summary)” value (rat sciatic nerve; VTD alone, 0.2-0.7 mM) was 6 to 12 min and the “duration, MOTOR” value (rat sciatic nerve; [VTD] 0.2 mM, 0.1 ml) was 124 ± 19 min. The “fraction block, MOTOR” value (rat sciatic nerve; [VTD] 0.5 mM, 0.1 ml) was 10/10, the “duration, MOTOR” value (rat sciatic nerve; [VTD] 0.5 mM, 0.1 ml) was 211 ± 31 min and the “onset, MOTOR” value (rat sciatic nerve; [VTD] 0.5 mM, 0.1 ml) was 10 ± 3 min. For the same molecule, the “duration, MOTOR” value (rat sciatic nerve; [VTD] 0.7 mM, 0.1 ml) was 285 ± 39 min, the “onset, MOTOR” value (rat sciatic nerve; [VTD] 0.7 mM, 0.1 ml) was 6 ± 2 min and the “Motor function inhibition compared with bupivacaine and lidocaine” value (rat sciatic nerve; rat sciatic nerve) was “more potent and longer acting inhibitor of motor function than either bupivacaine or lidocaine; also recorded: more potent and longer-acting inhibitor of motor function than either bupivacaine or lidocaine”.
